# Laboratory results from patent publication US20130053435A1, “Methods of Treating Alcohol Intoxication, Alcohol Use Disorders and Alcohol Abuse Which Comprises the Administration of Dihydromyricetin” (priority 2011, published 2013).
# How the values were obtained:
# Experiment in all cases: Whole-cell patch-clamp, DGCs in hippocampal slices, acute drug application
# Format in all cases: cell-based, rat
# GABAARs [1] = test system: T1, GABAARs; conditions: in the presence of 60 mM EtOH, rat hippocampal slices
# T1 construct: other: in the presence of 60 mM EtOH, rat hippocampal; shift of the GABA concentration-response curve
# Method: (§1) Transverse slices (400 μm) of dorsal hippocampus were obtained with a Vibratome (VT 100, Technical Products International, St. Louis, Mo.) and standard techniques known in the art. Slices were continuously perfused with artificial cerebrospinal fluid (ACSF).
# (§2) Signals were recorded in voltage-clamp mode with a […] amplifier (Molecular Devices, Sunnyvale, Calif.). Whole cell access resistances were in the range of <25 MΩ before electrical compensation by about 70%. During voltage-clamp recordings, access resistance was monitored by measuring the size of the capacitative transient in response to a 5 mV step command and the data were abandoned if changes >20% were encountered. At least 10 min was allowed for equilibration of the pipette solution with the intracellular milieu before commencing mIPSC recordings.
# (§3) Data were analyzed using the Clampfit (Version 9.0, Molecular Devices) and the MiniAnalysis Program (versions 6.0.7, Synaptosoft, Decatur, Ga.).
# (§4) The MiniAnalysis program (Synaptosoft, Decatur, Ga.) was used to analyze mIPSCs. Itonic is the averaged baseline currents of a given recording period. Itonic amplitude was calculated as the difference between the holding currents measured before and after picrotoxin (100 μM) or bicuculline (10 μM). […] Briefly, the recordings were low-pass filtered off-line (Clampfit software) at 2 kHz. The mIPSCs were detected (Mini Analysis Program, version 6.0.7) with threshold criteria of 8 pA amplitude and 20 pA*ms charge transfer. The frequency of mIPSCs was determined from all automatically detected events in a given 100 s recording period. For kinetic analysis, only single event mIPSCs with a stable baseline, sharp rising phase (10 to 90% rise time), and exponential decay were chosen during visual inspection of the recording trace. Double and multiple peak mIPSCs were excluded. At least 100 individual mIPSC events were recorded under each experimental condition. The mIPSC kinetics was obtained from analysis of the averaged chosen single events aligned with half rise time in each cell. Decay time constants were obtained by fitting a double exponential to the falling phase of the averaged mIPSCs. Itonic magnitudes were obtained from the averaged baseline current of a given recording period. Itonic amplitude was calculated as the difference between the holding currents measured before and after the application of picrotoxin (50 μM) or bicuculline (10 μM). […] The investigator performing the recordings and mIPSC analysis was blind to the treatment (vehicle, EtOH, E+D, or D) that the rats received.
# (§5) As performed previously, whole-cell patch-clamp recordings in dentate gyms granule cells (DGCs) from hippocampal slices in vitro were conducted.
# GABAARs [2] = test system: T2, GABAARs
# T2 construct: DHM-enhanced Itonic; EC50 on GABAAR-mediated Itonic; other: control (vehicle) cultured neurons, DIV14; other: cultured neurons with EtOH exposure/withdrawal (60 mM, 30 min, 24 hr); EtOH-potentiated Itonic; GABAAR-mediated Ito
# Method: as §1, §2, §3, §4, §5
# GABAARs [3] = test system: T3, GABAARs
# T3 construct: DHM-enhanced mIPSCs; other: control (vehicle) cultured neurons, DIV14; other: cultured neurons with EtOH exposure/withdrawal (60 mM, 30 min, 24 hr); EtOH-potentiated mIPSCs; effect on post-synaptic currents (mIPSCs); other: comparative experiments, rat hippocampal slices
# Method: as §1, §2, §3, §4, §5
# [4] = DHM 0.3 μM, DGCs from naïve rats
# [5] = DHM 1 μM, DGCs in hippocampal slices
# [6] = comparative experiments, rat hippocampal slices
compound,measurement,setting,value
"O=C1c2c(O)cc(O)cc2O[C@H](c2cc(O)c(O)c(O)c2)[C@H]1O [DHM, (2R,3R)-3,5,7-trihydroxy-2-(3,4,5-trihydroxyphenyl)-2,3-dihydrochromen-4-one]",block of EtOH potentiation of GABAAR-mediated Itonic and mIPSCs,GABAARs [1],dose-dependently blocks
same,GABAAR-mediated Itonic,GABAARs [2]; [4],29.0±6.7 pA
same,Itonic,GABAARs [2]; [5],44.0±4.1 pA
same,Itonic in presence of DHM plus EtOH,GABAARs [2]; DHM (0.3 μM) followed by co-application of 60 mM EtOH,44.4±3.6 pA
same,Itonic in presence of DHM before EtOH,"GABAARs [2]; DHM (0.3 μM, FIG. 3 panel c) before EtOH",41.1±2.2 pA
same,EtOH-potentiated Itonic,GABAARs [2]; EtOH 60 mM + DHM 3 μM,21.0±0.9 pA
same,EtOH-potentiated Itonic,GABAARs [2]; EtOH 60 mM followed by co-application of 1 μM DHM,32.0±2.0 pA
same,effect on extrasynaptic GABAAR-mediated tonic current (Itonic),GABAARs [2]; [6],potentiates
same,mIPSC total charge transfer (area),GABAARs [3]; [4],615±22 fC
same,mIPSC area,GABAARs [3]; [5],0.72±0.03 nC
same,EtOH-potentiated mIPSCs,GABAARs [3]; EtOH 60 mM + DHM 3 μM,0.70±0.02 nC
same,effect on post-synaptic currents (mIPSCs),GABAARs [3]; [6],potentiates
